{
  "source": "patent US20080286315A1",
  "about": "“Methionine Enkephalin as an Adjuvant for Vaccine Immunizations” (Penta Biotech, Inc., priority 2007, published 2008)",
  "assay_type_in_all_cases": "cell-based, IRM-2 mice",
  "key": {"dendritic cells [1]": {"system": "dendritic cells", "assay": "Dendritic cell surface marker expression (FITC antibodies to CD11c and CD80, flow cytometry)", "conditions": "day 9", "protocol": "(§1) Immature dendritic cells were isolated from spleens of IRM-2 mice with lymphocyte separation solution. The method used was adapted from a method of isolating lymphocytes using a centrifugation technique. First, diluted defibrinated blood was layered on a solution of sodium metrizoate and Dextran or Ficoll® and centrifuged at low speeds for 30 minutes. […] Mononuclear cells (lymphocytes and monocytes) and platelets are contained in the banded plasma-lymphocyte separation medium interphase due to their density. Erythrocytes and granulocytes migrate through the gradient and form a pellet to the bottom of the tube. Lymphocytes were recovered by aspirating the plasma layer and removing the cells. After proper washing and treatment, cells were suspended in RPMI-1640 containing 10% FCS and incubated in a CO2-incubator (37° C., 5% CO2) for 2 hours before use.\n(§2) The immature dendritic cells were divided into 6 groups and were centrifuged to remove the supernatants. RPMI-1640 containing 10 ng/ml IL-4, 100 ng/ml GM-CSF, 10% FCS, and MEK at either 0 ng/ml, 7.5 ng/ml, 15 ng/ml, 30 ng/ml, 60 ng/ml or 120 ng/ml was then added to the cells. The final cell density was 2×10^5 cells/ml. Cells were returned to the CO2-incubator and the media were replaced in half volumes every other day starting on the 3rd day. Cells were allowed to grow for 9 days and thereafter cell numbers were counted with an inverted phase-contrasted microscope. The group of cells having the highest density was regarded as having the most optimum conditions in terms of concentration for cytokines. Cell density was determined using the MTT [3-(4,5-Dimethylthiazol-2-yl)-2,5-Diphenyltetrazolium Bromide] assay, using methods known in the art. MEK facilitated the growth and multiplication of dendritic cells in a concentration dependent fashion. The effects were greatest with a MEK concentration at around 60 ng/ml and then decreased thereafter as MEK concentration increased.\nCells isolated and cultured as described above were processed on the 9th day with the addition of FITC labeled antibodies to CD11c and CD80. CD11c is the most specific cell surface marker for mature dendritic cells. CD80 is another marker that is expressed on mature dendritic cells. Stained cells were analyzed with a flow cell cytometer and cells expressing fluorescence markers were regarded as positive. The positive rates were analyzed and calculated using Bios Consort 30 software."}, "cultured dendritic cells": {"system": "cultured dendritic cells", "assay": "IL-12 levels in supernatants of cultured dendritic cells (IL-12 ELISA)", "conditions": "supernatant day 9", "protocol": "as §1, §2\nTo further characterize the cultured cells, cell culture supernatants were collected on the 9th day of incubation and were assayed according to the procedures defined in the IL-12 ELISA Assay Kit obtained from eBioscience, USA. IL-12 is a cytokine known to be secreted by mature dendritic cells."}, "dendritic cells [2]": {"system": "dendritic cells", "assay": "Micrographs of dendritic cells (400x)", "conditions": "60 ng/ml MEK; with IL-4 and GM-CSF", "from_the_text": "FIGS. 1 and 2 show micrographs of dendritic cells magnified 400×. Cells were isolated and cultured as described above."}, "immature dendritic cells": {"system": "immature dendritic cells", "assay": "Dendritic cell density and proliferation with different concentrations of MEK (cell counting / MTT assay)", "conditions": "for Cell Density: 9 days culture with IL-4 and GM-CSF; for Increase Percent: control = 100.0", "protocol": "as §1, §2"}},
  "data": [
    {"compound": "CSCC[C@H](NC(=O)[C@@H](Cc1ccccc1)NC(=O)CNC(=O)CNC(=O)[C@H](N)Cc1ccc(O)cc1)C(=O)O", "note": "[MEK, methionine enkephalin]", "values": [
      {"measurement": "CD11C(+) %", "setting": "dendritic cells [1]; MEK 7.5 ng/ml, control 47.2", "value": 49.9, "unit": "%"},
      {"measurement": "CD80(+) %", "setting": "dendritic cells [1]; MEK 7.5 ng/ml, control 50.3", "value": 51.3, "unit": "%"},
      {"measurement": "CD11C(+) %", "setting": "dendritic cells [1]; MEK 15 ng/ml", "value": 51.3, "unit": "%"},
      {"measurement": "CD80(+) %", "setting": "dendritic cells [1]; MEK 15 ng/ml", "value": 54.1, "unit": "%"},
      {"measurement": "CD11C(+) %", "setting": "dendritic cells [1]; MEK 30 ng/ml", "value": 55.6, "unit": "%"},
      {"measurement": "CD80(+) %", "setting": "dendritic cells [1]; MEK 30 ng/ml", "value": 58.7, "unit": "%"},
      {"measurement": "CD11C(+) %", "setting": "dendritic cells [1]; MEK 60 ng/ml", "value": 62.7, "unit": "%"},
      {"measurement": "CD80(+) %", "setting": "dendritic cells [1]; MEK 60 ng/ml", "value": 64.6, "unit": "%"},
      {"measurement": "CD11C(+) %", "setting": "dendritic cells [1]; MEK 120 ng/ml", "value": 57.3, "unit": "%"},
      {"measurement": "CD80(+) %", "setting": "dendritic cells [1]; MEK 120 ng/ml", "value": 63.3, "unit": "%"},
      {"measurement": "IL-12 Level", "setting": "cultured dendritic cells; MEK 7.5 ng/ml, control 68", "value": "102 ± 1.1", "unit": "pg/mL"},
      {"measurement": "IL-12 Level", "setting": "cultured dendritic cells; MEK 15 ng/ml", "value": "126 ± 0.4", "unit": "pg/mL"},
      {"measurement": "IL-12 Level", "setting": "cultured dendritic cells; MEK 30 ng/ml", "value": "175 ± 1.6", "unit": "pg/mL"},
      {"measurement": "IL-12 Level", "setting": "cultured dendritic cells; MEK 60 ng/ml", "value": "256 ± 0.3", "unit": "pg/mL"},
      {"measurement": "IL-12 Level", "setting": "cultured dendritic cells; MEK 120 ng/ml", "value": "227 ± 1.9", "unit": "pg/mL"},
      {"measurement": "cell density in micrographs versus cells not treated with MEK", "setting": "dendritic cells [2]", "value": "increase in cell density"},
      {"measurement": "cell processes (veils or dendrites) on the dendritic cells versus cells not treated with MEK", "setting": "dendritic cells [2]", "value": "increase in cell processes"},
      {"measurement": "Cell Density", "setting": "immature dendritic cells; MEK 7.5 ng/ml, start 2x10^5 cells/ml", "value": "2.2 ± 0.1 10^5/ml"},
      {"measurement": "Increase Percent", "setting": "immature dendritic cells; MEK 7.5 ng/ml", "value": 127.1, "unit": "%"},
      {"measurement": "Cell Density", "setting": "immature dendritic cells; MEK 15 ng/ml", "value": "2.5 ± 0.2 10^5/ml"},
      {"measurement": "Increase Percent", "setting": "immature dendritic cells; MEK 15 ng/ml", "value": 133.3, "unit": "%"},
      {"measurement": "Cell Density", "setting": "immature dendritic cells; MEK 30 ng/ml", "value": "2.9 ± 1.2 10^5/ml"},
      {"measurement": "Increase Percent", "setting": "immature dendritic cells; MEK 30 ng/ml", "value": 159.2, "unit": "%"},
      {"measurement": "Cell Density", "setting": "immature dendritic cells; MEK 60 ng/ml", "value": "4.8 ± 0.2 10^5/ml"},
      {"measurement": "Increase Percent", "setting": "immature dendritic cells; MEK 60 ng/ml", "value": 246.5, "unit": "%"},
      {"measurement": "Cell Density", "setting": "immature dendritic cells; MEK 120 ng/ml", "value": "3.1 ± 0.1 10^5/ml"},
      {"measurement": "Increase Percent", "setting": "immature dendritic cells; MEK 120 ng/ml", "value": 165.5, "unit": "%"},
      {"measurement": "MEK concentration with greatest effect on growth and multiplication of dendritic cells", "setting": "immature dendritic cells; tested 7.5-120 ng/ml, concentration dependent", "value": "around 60 ng/ml"}
    ]}
  ]
}
